From patent publication US6140311A, “Therapy by intrathecal administration of antitumor agent FUDR” (priority 1997, dated 2000)

How the values were obtained:
203 glioma cells = experiment: In vivo antitumor effect of intrathecal FUDR in mouse meningeal carcinomatosis model; set-up: species or system C57/BL6 mice; settings: daily for 5 consecutive days, control group all dead
Procedure: Six-week-old C57/BL6 mice divided into groups of 22 or 23 were used to prepare models of meningeal carcinomatosis by directly puncturing the cisterna magna with a 26-gauge needle under anesthesia with ethyl ether and injecting transplantable 203 glioma cells (5×10^5 cells/0.05 ml). The mice were given a specified dose of FUDR by intrathecal injection (0, 25, 50, 100 or 250 μg/0.05 ml/head) daily for 5 consecutive days following the day of transplant.

[1] = Toxicity of intrathecal FUDR in normal mice (body weight, symptoms, brain histology); assay type: in vivo, C57/BL6 mice; settings: for body weight variation: days 0, 2, 4, 6
Procedure: Normal C57/BL6 mice divided into groups of 20 were given FUDR by intrathecal injection at a specified dose (0, 10, 25, 50 or 100 μg/0.05ml/head) on the day of start of the experiment, 2 days, 4 days and 6 days after the start. Two months after the completion of administration of the drug, the mice were all sacrificed, and brain tissues were collected, followed by hematoxylin & eosin staining and Kluver Barrera staining for histological investigation.

[2] = test system: meningeal dissemination of malignant tumours; experiment: Clinical results of intrathecal chemotherapy with FUDR via Ommaya reservoir;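 note: 13 patients with meningeal spread from various primary tumours, treatment length adjusted to disease symptoms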
Procedure: The drug was given at a dose of 1 to 10 μg/body a day, three times a week. The period of administration was varied from 3 to 8 weeks in accordance with the symptoms of the disease.

meningeal carcinomatosis = settings: intrathecal MTX; cited from earlier work
[3] = high-dose group 100 μg/0.05 ml intrathecal
[4] = 1 to 10 μg/body a day intrathecal, three times a week, 3 to 8 weeks
[5] = per patient, before→after, CSF obtained by anterial horn of lateral ventricle
[6] = per patient, 1 to 10 μg/body a day intrathecal, three times a week, 3 to 8 weeks

Structure (SMILES) | survivors on day 14 postimplantation (203 glioma cells; 100 μg/0.05 ml/head intrathecal) | survivors on day 14 postimplantation (203 glioma cells; 250 μg/0.05 ml/head intrathecal) | neurotic manifestation during and after administration ([1]; all dose groups 10-100 μg/0.05 ml intrathecal) | histological changes in cranial nerve tissues (hematoxylin & eosin, Kluver Barrera staining) ([1]; high-dose (100 μg/0.05 ml) group, two months after completion of administration) | side effects such as diarrhea [1, 3] | body weight variation [1, 3] | body weight variation ([1]; medium-dose group 50 μg/0.05 ml intrathecal) | body weight variation ([1]; small-dose group 10 μg/0.05 ml intrathecal) | body weight variation ([1]; small-dose group 25 μg/0.05 ml intrathecal) | efficacy, summary of 13 patients [2, 4] | side effects, summary of 13 patients [2, 4] | Cell numbers Ventricular CSF [2, 5] | Protein Ventricular CSF [2, 5] | Cell numbers Spinal CSF ([2]; per patient, before→after, CSF obtained by lumbar puncture) | Response on CSF findings [2, 6] | Side effects [2, 6] | side effects limiting the dose (meningeal carcinomatosis)
O=c1[nH]c(=O)n([C@H]2C[C@H](O)[C@@H](CO)O2)cc1F [FUDR, 5-fluoro-deoxyuridine] | 21 survivors among 22 animals | 21 survivors among 22 animals | none of the mice developed neurotic manifestation | none of the mice exhibited abnormalities in the cranial nerve tissues | free of side effects such as frequent diarrhea | transient weight decrease | no weight decrease whatever | no weight decrease whatever | no weight decrease whatever | diminutions of tumor marker, CSF cells and protein in CSF | none of side effects such as toxicity to the digestive tracts, neurotoxicity, myelosuppression, and dysfunction of the liver and kidney | 50.fwdarw | 147.fwdar | 144.fwdar | No and Response and No Response | None | 
CN(Cc1cnc2nc(N)nc(N)c2n1)c1ccc(C(=O)N[C@@H](CCC(=O)O)C(=O)O)cc1 [MTX, methotrexate] |  |  |  |  |  |  |  |  |  |  |  |  |  |  |  |  | Acute neurotoxicity and retarded necrotizing encephalopathy
